The term viability, T/C denotes the ratio of treated to control.
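Note: luminescence signal used as surrogate measure of viable cells; spheroids exposed to compounds for seven days before readout; 100% = DMSO vehicle control viability as luminescence relative to vehicle.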

The first experiment deals with 429239-143-T-J1-PDC complex spheroid viability. In words: Anticancer human tumor 429239-143-T-J1-PDC patient-derived small cell lung carcinoma cell line growth inhibition [POLQ]. To be noted: second compound 3.16 µM; first compound 0.0316 µM; stronger effect = lower value. In a few lines: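 Three-cell-type spheroids modelling solid tumor plus stroma served as the readout system; POL inhibitors were tested individually and in combination, concentration ranges set by clinical Cmax where known.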
For `COc1cccc(OCCCN)c1-c1cc(Nc2cnc(C#N)cn2)n[nH]1` + Nc1ccc(C#CCN(C(=O)Cc2ncc(C(F)(F)F)cc2C(F)(F)F)c2ccc(F)cc2)nn1, the viability, T/C is 90.6%.

Regarding `O=C(c1cc(Cc2n[nH]c(=O)c3ccccc23)ccc1F)N1CCN(C(=O)C2CC2)CC1` + Nc1ccc(C#CCN(C(=O)Cc2ncc(C(F)(F)F)cc2C(F)(F)F)c2ccc(F)cc2)nn1, the viability, T/C was 97.6%.

Still in this experiment, the particulars now being: second compound 3.16 µM; first compound 0.1 µM; stronger effect = lower value.
As for `C=CCn1c(=O)c2cnc(Nc3ccc(N4CCN(C)CC4)cc3)nc2n1-c1cccc(C(C)(C)O)n1` + Nc1ccc(C#CCN(C(=O)Cc2ncc(C(F)(F)F)cc2C(F)(F)F)c2ccc(F)cc2)nn1, the viability, T/C is 103%.

Turning to `CNCc1ccc(-c2[nH]c3cc(F)cc4c3c2CCNC4=O)cc1` + Nc1ccc(C#CCN(C(=O)Cc2ncc(C(F)(F)F)cc2C(F)(F)F)c2ccc(F)cc2)nn1, the viability, T/C was 92.2%.

Turning to `COc1cccc(OCCCN)c1-c1cc(Nc2cnc(C#N)cn2)n[nH]1` + Nc1ccc(C#CCN(C(=O)Cc2ncc(C(F)(F)F)cc2C(F)(F)F)c2ccc(F)cc2)nn1, the viability, T/C was 74.5%.

Consider `O=C(c1cc(Cc2n[nH]c(=O)c3ccccc23)ccc1F)N1CCN(C(=O)C2CC2)CC1` + Nc1ccc(C#CCN(C(=O)Cc2ncc(C(F)(F)F)cc2C(F)(F)F)c2ccc(F)cc2)nn1, for which the viability, T/C is 93.4%.

The experiment is the same for the next values; noted with them: second compound 3.16 µM; first compound 0.316 µM; stronger effect = lower value.
Regarding `C=CCn1c(=O)c2cnc(Nc3ccc(N4CCN(C)CC4)cc3)nc2n1-c1cccc(C(C)(C)O)n1` + Nc1ccc(C#CCN(C(=O)Cc2ncc(C(F)(F)F)cc2C(F)(F)F)c2ccc(F)cc2)nn1, the viability, T/C is 90.3%.

Turning to `CNCc1ccc(-c2[nH]c3cc(F)cc4c3c2CCNC4=O)cc1` + Nc1ccc(C#CCN(C(=O)Cc2ncc(C(F)(F)F)cc2C(F)(F)F)c2ccc(F)cc2)nn1, the viability, T/C was 94.7%.

Regarding `COc1cccc(OCCCN)c1-c1cc(Nc2cnc(C#N)cn2)n[nH]1` + Nc1ccc(C#CCN(C(=O)Cc2ncc(C(F)(F)F)cc2C(F)(F)F)c2ccc(F)cc2)nn1, the viability, T/C was 40.3%.

As to `O=C(c1cc(Cc2n[nH]c(=O)c3ccccc23)ccc1F)N1CCN(C(=O)C2CC2)CC1` + Nc1ccc(C#CCN(C(=O)Cc2ncc(C(F)(F)F)cc2C(F)(F)F)c2ccc(F)cc2)nn1, the viability, T/C was 90.8%.

Staying with this experiment, now noted: second compound 3.16 µM; first compound 1 µM; stronger effect = lower value.
Consider `C=CCn1c(=O)c2cnc(Nc3ccc(N4CCN(C)CC4)cc3)nc2n1-c1cccc(C(C)(C)O)n1` + Nc1ccc(C#CCN(C(=O)Cc2ncc(C(F)(F)F)cc2C(F)(F)F)c2ccc(F)cc2)nn1, for which the viability, T/C was 12.9%.

For `CNCc1ccc(-c2[nH]c3cc(F)cc4c3c2CCNC4=O)cc1` + Nc1ccc(C#CCN(C(=O)Cc2ncc(C(F)(F)F)cc2C(F)(F)F)c2ccc(F)cc2)nn1, the viability, T/C is 90.7%.

`COc1cccc(OCCCN)c1-c1cc(Nc2cnc(C#N)cn2)n[nH]1` + Nc1ccc(C#CCN(C(=O)Cc2ncc(C(F)(F)F)cc2C(F)(F)F)c2ccc(F)cc2)nn1: the viability, T/C is 24.5%.

In the case of `O=C(c1cc(Cc2n[nH]c(=O)c3ccccc23)ccc1F)N1CCN(C(=O)C2CC2)CC1` + Nc1ccc(C#CCN(C(=O)Cc2ncc(C(F)(F)F)cc2C(F)(F)F)c2ccc(F)cc2)nn1, the viability, T/C is 95.2%.

The experiment is the same for the next values; noted with them: second compound 3.16 µM; first compound 3.16 µM; stronger effect = lower value.
On to `CNCc1ccc(-c2[nH]c3cc(F)cc4c3c2CCNC4=O)cc1` + Nc1ccc(C#CCN(C(=O)Cc2ncc(C(F)(F)F)cc2C(F)(F)F)c2ccc(F)cc2)nn1, for which the viability, T/C was 75.1%.

Regarding `O=C(c1cc(Cc2n[nH]c(=O)c3ccccc23)ccc1F)N1CCN(C(=O)C2CC2)CC1` + Nc1ccc(C#CCN(C(=O)Cc2ncc(C(F)(F)F)cc2C(F)(F)F)c2ccc(F)cc2)nn1, the viability, T/C was 64.3%.

The experiment is the same for the next values; noted with them: second compound 3.16 µM; first compound 10 µM; stronger effect = lower value.
With `CNCc1ccc(-c2[nH]c3cc(F)cc4c3c2CCNC4=O)cc1` + Nc1ccc(C#CCN(C(=O)Cc2ncc(C(F)(F)F)cc2C(F)(F)F)c2ccc(F)cc2)nn1, the viability, T/C is 31.4%.

Turning to `O=C(c1cc(Cc2n[nH]c(=O)c3ccccc23)ccc1F)N1CCN(C(=O)C2CC2)CC1` + Nc1ccc(C#CCN(C(=O)Cc2ncc(C(F)(F)F)cc2C(F)(F)F)c2ccc(F)cc2)nn1, the viability, T/C is 8.47%.

Still in this experiment, the particulars now being: second compound 10 µM; first compound 0.00316 µM; stronger effect = lower value.
For `C=CCn1c(=O)c2cnc(Nc3ccc(N4CCN(C)CC4)cc3)nc2n1-c1cccc(C(C)(C)O)n1` + Nc1ccc(C#CCN(C(=O)Cc2ncc(C(F)(F)F)cc2C(F)(F)F)c2ccc(F)cc2)nn1, the viability, T/C was 106%.

Regarding `COc1cccc(OCCCN)c1-c1cc(Nc2cnc(C#N)cn2)n[nH]1` + Nc1ccc(C#CCN(C(=O)Cc2ncc(C(F)(F)F)cc2C(F)(F)F)c2ccc(F)cc2)nn1, the viability, T/C is 102%.

Still in this experiment, the particulars now being: second compound 10 µM; first compound 0.01 µM; stronger effect = lower value.
Take `C=CCn1c(=O)c2cnc(Nc3ccc(N4CCN(C)CC4)cc3)nc2n1-c1cccc(C(C)(C)O)n1` + Nc1ccc(C#CCN(C(=O)Cc2ncc(C(F)(F)F)cc2C(F)(F)F)c2ccc(F)cc2)nn1: the viability, T/C is 99.7%.

In the case of `COc1cccc(OCCCN)c1-c1cc(Nc2cnc(C#N)cn2)n[nH]1` + Nc1ccc(C#CCN(C(=O)Cc2ncc(C(F)(F)F)cc2C(F)(F)F)c2ccc(F)cc2)nn1, the viability, T/C is 86.5%.

Still in this experiment, the particulars now being: second compound 10 µM; first compound 0.0316 µM; stronger effect = lower value.
On to `C=CCn1c(=O)c2cnc(Nc3ccc(N4CCN(C)CC4)cc3)nc2n1-c1cccc(C(C)(C)O)n1` + Nc1ccc(C#CCN(C(=O)Cc2ncc(C(F)(F)F)cc2C(F)(F)F)c2ccc(F)cc2)nn1, for which the viability, T/C was 122%.

Take `CNCc1ccc(-c2[nH]c3cc(F)cc4c3c2CCNC4=O)cc1` + Nc1ccc(C#CCN(C(=O)Cc2ncc(C(F)(F)F)cc2C(F)(F)F)c2ccc(F)cc2)nn1: the viability, T/C is 101%.

Take `COc1cccc(OCCCN)c1-c1cc(Nc2cnc(C#N)cn2)n[nH]1` + Nc1ccc(C#CCN(C(=O)Cc2ncc(C(F)(F)F)cc2C(F)(F)F)c2ccc(F)cc2)nn1: the viability, T/C is 75.7%.

As for `O=C(c1cc(Cc2n[nH]c(=O)c3ccccc23)ccc1F)N1CCN(C(=O)C2CC2)CC1` + Nc1ccc(C#CCN(C(=O)Cc2ncc(C(F)(F)F)cc2C(F)(F)F)c2ccc(F)cc2)nn1, the viability, T/C was 102%.

Staying with this experiment, now noted: second compound 10 µM; first compound 0.1 µM; stronger effect = lower value.
With `C=CCn1c(=O)c2cnc(Nc3ccc(N4CCN(C)CC4)cc3)nc2n1-c1cccc(C(C)(C)O)n1` + Nc1ccc(C#CCN(C(=O)Cc2ncc(C(F)(F)F)cc2C(F)(F)F)c2ccc(F)cc2)nn1, the viability, T/C was 101%.

`CNCc1ccc(-c2[nH]c3cc(F)cc4c3c2CCNC4=O)cc1` + Nc1ccc(C#CCN(C(=O)Cc2ncc(C(F)(F)F)cc2C(F)(F)F)c2ccc(F)cc2)nn1: the viability, T/C was 80.5%.

For the compound `COc1cccc(OCCCN)c1-c1cc(Nc2cnc(C#N)cn2)n[nH]1` + Nc1ccc(C#CCN(C(=O)Cc2ncc(C(F)(F)F)cc2C(F)(F)F)c2ccc(F)cc2)nn1, the viability, T/C was 60%.

Take `O=C(c1cc(Cc2n[nH]c(=O)c3ccccc23)ccc1F)N1CCN(C(=O)C2CC2)CC1` + Nc1ccc(C#CCN(C(=O)Cc2ncc(C(F)(F)F)cc2C(F)(F)F)c2ccc(F)cc2)nn1: the viability, T/C is 92%.

The same experiment, now with this note: second compound 10 µM; first compound 0.316 µM; stronger effect = lower value.
In the case of `C=CCn1c(=O)c2cnc(Nc3ccc(N4CCN(C)CC4)cc3)nc2n1-c1cccc(C(C)(C)O)n1` + Nc1ccc(C#CCN(C(=O)Cc2ncc(C(F)(F)F)cc2C(F)(F)F)c2ccc(F)cc2)nn1, the viability, T/C is 84%.

As for `CNCc1ccc(-c2[nH]c3cc(F)cc4c3c2CCNC4=O)cc1` + Nc1ccc(C#CCN(C(=O)Cc2ncc(C(F)(F)F)cc2C(F)(F)F)c2ccc(F)cc2)nn1, the viability, T/C was 87.6%.

With `COc1cccc(OCCCN)c1-c1cc(Nc2cnc(C#N)cn2)n[nH]1` + Nc1ccc(C#CCN(C(=O)Cc2ncc(C(F)(F)F)cc2C(F)(F)F)c2ccc(F)cc2)nn1, the viability, T/C is 36.2%.

In the case of `O=C(c1cc(Cc2n[nH]c(=O)c3ccccc23)ccc1F)N1CCN(C(=O)C2CC2)CC1` + Nc1ccc(C#CCN(C(=O)Cc2ncc(C(F)(F)F)cc2C(F)(F)F)c2ccc(F)cc2)nn1, the viability, T/C was 93.5%.

The experiment is the same for the next values; noted with them: second compound 10 µM; first compound 1 µM; stronger effect = lower value.
Consider `C=CCn1c(=O)c2cnc(Nc3ccc(N4CCN(C)CC4)cc3)nc2n1-c1cccc(C(C)(C)O)n1` + Nc1ccc(C#CCN(C(=O)Cc2ncc(C(F)(F)F)cc2C(F)(F)F)c2ccc(F)cc2)nn1, for which the viability, T/C was 13.3%.

Regarding `CNCc1ccc(-c2[nH]c3cc(F)cc4c3c2CCNC4=O)cc1` + Nc1ccc(C#CCN(C(=O)Cc2ncc(C(F)(F)F)cc2C(F)(F)F)c2ccc(F)cc2)nn1, the viability, T/C is 83%.

With `COc1cccc(OCCCN)c1-c1cc(Nc2cnc(C#N)cn2)n[nH]1` + Nc1ccc(C#CCN(C(=O)Cc2ncc(C(F)(F)F)cc2C(F)(F)F)c2ccc(F)cc2)nn1, the viability, T/C was 26.1%.

Regarding `O=C(c1cc(Cc2n[nH]c(=O)c3ccccc23)ccc1F)N1CCN(C(=O)C2CC2)CC1` + Nc1ccc(C#CCN(C(=O)Cc2ncc(C(F)(F)F)cc2C(F)(F)F)c2ccc(F)cc2)nn1, the viability, T/C was 88.9%.

The experiment is the same for the next values; noted with them: second compound 10 µM; first compound 3.16 µM; stronger effect = lower value.
For the compound `CNCc1ccc(-c2[nH]c3cc(F)cc4c3c2CCNC4=O)cc1` + Nc1ccc(C#CCN(C(=O)Cc2ncc(C(F)(F)F)cc2C(F)(F)F)c2ccc(F)cc2)nn1, the viability, T/C is 81.8%.

Turning to `O=C(c1cc(Cc2n[nH]c(=O)c3ccccc23)ccc1F)N1CCN(C(=O)C2CC2)CC1` + Nc1ccc(C#CCN(C(=O)Cc2ncc(C(F)(F)F)cc2C(F)(F)F)c2ccc(F)cc2)nn1, the viability, T/C was 55.4%.

The experiment is the same for the next values; noted with them: second compound 10 µM; first compound 10 µM; stronger effect = lower value.
Take `CNCc1ccc(-c2[nH]c3cc(F)cc4c3c2CCNC4=O)cc1` + Nc1ccc(C#CCN(C(=O)Cc2ncc(C(F)(F)F)cc2C(F)(F)F)c2ccc(F)cc2)nn1: the viability, T/C is 24.1%.

`O=C(c1cc(Cc2n[nH]c(=O)c3ccccc23)ccc1F)N1CCN(C(=O)C2CC2)CC1` + Nc1ccc(C#CCN(C(=O)Cc2ncc(C(F)(F)F)cc2C(F)(F)F)c2ccc(F)cc2)nn1: the viability, T/C is 6.04%.

Values taken from PubChem BioAssay AID1963845 (Molecular Pharmacology Branch, DTP, NCI, 2024).
